Here are results for two compounds from publication PMC10799709, “Characterization of a New Immunosuppressive and Antimicrobial Peptide, DRS-DA2, Isolated from the Mexican Frog, Pachymedusa dacnicolor” (International Journal of Inflammation, 2024).

In one data set the test system is Human erythrocytes. As to the kind of experiment: Hemolytic test, human erythrocytes. The format is cell-based. As to conditions: human erythrocytes in PBS, 1 h, 37°C, absorbance 550 nm; no death at 10 µM; 3 independent experiments in triplicate. As to the method: (§1) Blood from a mouse or healthy adult donor was centrifuged at 800 × g for 10 minutes at 4°C. The pellet containing red blood cells was then washed three times in 10 volumes of PBS and was diluted in 4% (v/v) in PBS. Blood and peptides at different concentrations were then incubated at 37°C for one hour. Cells were centrifuged 1500 × g for 5 minutes at room temperature. Hemolysis was measured in the supernatant at 550 nm. Red blood cells lysed with 1% Triton X-100 was used as a control, achieving 100% hemolysis. Percent hemolysis was calculated using the following formula: % hemolysis = 100% × [(A − A0)/(At − A0)], where A represents the absorbance of the peptide sample at 550 nm and A0 and At represent 0% and 100% hemolysis determined in 10 mM PBS and 0.1% Triton X-100, respectively.

The next data set concerns Mouse erythrocytes. As to the kind of experiment: Hemolytic test, mouse erythrocytes. As to conditions: mouse erythrocytes in PBS, 1 h, absorbance 550 nm; no death at 10 µM; 3 independent experiments in triplicate. Format: cell-based. Here is the method:
as §1

Data set [1] has as its system Human primary epithelial cells. As to the kind of experiment: Cytotoxic assay on human primary epithelial cells. The format is cell-based. As to conditions: 2 h, 37°C, flow cytometry, no death at 10 µM. An excerpt: (§2) Human leukocytes were provided by the « Banco de Sangre del Hospital Regional del IMSS » and the Centro Estatal de la Transfusión Sanguínea in Cuernavaca, Morelos, Mexico. Institutional committees approved the acquisition and isolation of human peripheral blood leukocytes. Human leukocytes and erythrocytes were obtained as previously described. Mouse bone marrow cells (MBMCs) and erythrocytes were obtained from C57BL/6 or Balb/c mice. Mouse epithelial cells were isolated from C57Bl/6 mice, and human epithelial cells were recovered from surgery residues. In brief, intestinal tissues were minced and digested in 450-U/mL collagenase I, 125-U/mL collagenase XI, 60-U/mL hyaluronidase, and 60-U/mL DNAse for 1 hour before gradient density centrifugation on Histopaque-1083 (Sigma-Aldrich, St. Louis, MO). […]
(§3) 5.10^5 mouse or human leukocytes or primary epithelial cells, A549 or Jurkat E6-1 cells, were incubated in 100 µl RPMI or DMEM containing 0.5% BSA and […] with the peptides at different concentrations for 2 hours at 37°C, 5% CO2. […] Viability of leukocytes and Jurkat cells was determined by adding a viability dye (eFluor 780) and counted by FacsCanto flow cytometry with a predetermined number of beads (Polybead, Carboxylate Microspheres, Polysciences, Inc., Le Perray-en-Yvelines, France) added to the samples. […] Data were analyzed with FlowJo.
For orientation: Flow cytometry measures light scatter and fluorescence of single cells or particles in a stream.

For data set [2], the system named is Mouse primary epithelial cells. As to the kind of experiment: Cytotoxic assay on mouse primary epithelial cells. As to conditions: 2 h, 37°C, flow cytometry, no death at 10 µM. The format is cell-based.
Description: as §2, §3

The next data set has as its system A549 cells. As to the kind of experiment: A549 viability, CCK8 assay. The format is cell-based, human. As to conditions: A549, 1 h, 37°C, duplicate, no death at 10 µM. From the text:
Human leukocytes were provided by the « Banco de Sangre del Hospital Regional del IMSS » and the Centro Estatal de la Transfusión Sanguínea in Cuernavaca, Morelos, Mexico. Institutional committees approved the acquisition and isolation of human peripheral blood leukocytes. Human leukocytes and erythrocytes were obtained as previously described. Mouse bone marrow cells (MBMCs) and erythrocytes were obtained from C57BL/6 or Balb/c mice. Mouse epithelial cells were isolated from C57Bl/6 mice, and human epithelial cells were recovered from surgery residues. In brief, intestinal tissues were minced and digested in 450-U/mL collagenase I, 125-U/mL collagenase XI, 60-U/mL hyaluronidase, and 60-U/mL DNAse for 1 hour before gradient density centrifugation on Histopaque-1083 (Sigma-Aldrich, St. Louis, MO). A549 cells (ATCC CCL-185), a human lung carcinoma cell line, were cultivated at 37°C in a humid atmosphere and 5% CO2, with DMEM advanced medium (Gibco®) supplemented with 5% of fetal bovine serum (FBS), 2 mM of glutamine, 100 U of penicillin, and 50 μg/mL of streptomycin (Gibco®). Jurkat E6-1 cells were cultured in an RPMI medium supplemented with 5% fetal bovine serum.
For the cell line A549, viability was assessed by the CCK8 assay (DoJindo) as indicated by the manufacturer. […] The absorbance at 450 nm was measured after 3 h incubation.

The nature of data set [3]: In vitro peptide stability in rat serum, RP-HPLC. As to conditions: 37°C, 300 µM peptide; for degradation of the peptide: RPMI with 25% (v/v) rat serum. Format: in vitro ADME. Here is the method:
(§4) One mL of RPMI supplemented with 25% (v/v) rat serum was equilibrated at 37°C for 15 min before adding the peptide (final concentration of 300 µM). At different time points, 300 µL of the reaction solution was removed and completed to 600 µL with 96% ethanol. The sample was cooled at 4°C for 15 min and then spun to precipitate serum proteins. The supernatant was recovered and submitted to the viability assay as described in the cytotoxic assay section or analyzed by RP-HPLC on C18–300 100 × 4, 6 mm. A linear gradient from 100% buffer A (0.1% TFA in H20) to 60% of buffer B (0.1% TFA in ACN) was used over 10 min with a flow rate of 1 mL/min. The absorbance was detected at both 220 nm and 280 nm.

A further data set has as its system mouse bone marrow cells. As to the kind of experiment: Cytotoxic activity of peptide recovered after serum incubation. The format is cell-based. As to conditions: then 5 µM on mouse bone marrow cells for 2 h. As to the method: 5.10^5 mouse or human leukocytes or primary epithelial cells, A549 or Jurkat E6-1 cells, were incubated in 100 µl RPMI or DMEM containing 0.5% BSA and […] with the peptides at different concentrations for 2 hours at 37°C, 5% CO2. Incubation of the cells with DMSO 30% was used as a positive control. For the kinetic assay, the cells were incubated with the peptides for different time periods. Viability of leukocytes and Jurkat cells was determined by adding a viability dye (eFluor 780) and counted by FacsCanto flow cytometry with a predetermined number of beads (Polybead, Carboxylate Microspheres, Polysciences, Inc., Le Perray-en-Yvelines, France) added to the samples. Mouse leukocytes were stained with anti-mouse Ly6G-PE, anti-mouse NK1.1-PE, anti-mouse CD11b-PerCP, and anti-mouse F4/80-APC (BD Biosciences, Rungis, France). Human leukocytes were stained with anti-human CD45-PB, anti-human CD16-PE-Cy7, anti-human CD56-PE-Cy7, anti-human CD14-FITC, anti-human CD3V500, anti-human CD8-APC, and anti-human CD4-PE. Data were analyzed with FlowJo.
as §4

Peptide text beside a SMILES is read from it.

`CSCC[C@H](NC(=O)[C@H](CC(N)=O)NC(=O)[C@@H](NC(=O)[C@@H](NC(=O)[C@H](C)NC(=O)[C@H](CC(N)=O)NC(=O)[C@H](CC(C)C)NC(=O)[C@@H](NC(=O)[C@H](C)NC(=O)[C@H](CCCCN)NC(=O)CNC(=O)[C@H](C)NC(=O)[C@@H](NC(=O)[C@H](CCCCN)NC(=O)CNC(=O)[C@@H](NC(=O)[C@H](CCCCN)NC(=O)[C@H](CCCCN)NC(=O)[C@H](CC(C)C)NC(=O)[C@H](CC(C)C)NC(=O)[C@@H](NC(=O)[C@H](CCCCN)NC(=O)[C@H](Cc1c[nH]c2ccccc12)NC(=O)[C@H](CC(C)C)NC(=O)[C@H](C)N)[C@@H](C)O)C(C)C)C(C)C)C(C)C)C(C)C)[C@@H](C)O)C(=O)N[C@@H](C)C(=O)N[C@@H](CC(N)=O)C(=O)N[C@@H](CCC(N)=O)C(=O)N[C@@H](CC(N)=O)C(=O)N[C@@H](CCC(=O)O)C(=O)N[C@@H](CCC(N)=O)C(=O)O` [DRS-DA2NEQ] (H-ALWKTLLKKVGKVAGKAVLNAVTNMANQNEQ-OH): the Trp λmax in aqueous buffer was 355 nm. In addition, in the data set on Human erythrocytes, the “toxicity for erythrocytes (hemolysis)” value is “not toxic”. Also, the “toxicity for erythrocytes (hemolysis)” value in the data set with Mouse erythrocytes is on record as “not toxic”. For the same compound, in data set [1], the “toxicity for primary epithelial cells” value is “not toxic”. In addition, the “toxicity for primary epithelial cells” value in data set [2] is recorded as “not toxic”. In the data set on A549 cells, the “toxicity for A549 cells” value is “not toxic”. Further, the “time of resistance to enzymatic degradation” value in data set [3] (rat serum, title of Figure 7) turned out to be 15 min.
`CSCC[C@H](NC(=O)[C@H](CC(N)=O)NC(=O)[C@@H](NC(=O)[C@@H](NC(=O)[C@H](C)NC(=O)[C@H](CC(N)=O)NC(=O)[C@H](CC(C)C)NC(=O)[C@@H](NC(=O)[C@H](C)NC(=O)[C@H](CCCCN)NC(=O)CNC(=O)[C@H](C)NC(=O)[C@@H](NC(=O)[C@H](CCCCN)NC(=O)CNC(=O)[C@@H](NC(=O)[C@H](CCCCN)NC(=O)[C@H](CCCCN)NC(=O)[C@H](CC(C)C)NC(=O)[C@H](CC(C)C)NC(=O)[C@@H](NC(=O)[C@H](CCCCN)NC(=O)[C@H](Cc1c[nH]c2ccccc12)NC(=O)[C@H](CC(C)C)NC(=O)[C@H](C)N)[C@@H](C)O)C(C)C)C(C)C)C(C)C)C(C)C)[C@@H](C)O)C(=O)N[C@@H](C)C(=O)N[C@@H](CC(N)=O)C(=O)N[C@@H](CCC(N)=O)C(=O)N[C@@H](CC(N)=O)C(=O)O` [DRS-DA2N] (H-ALWKTLLKKVGKVAGKAVLNAVTNMANQN-OH) showed a Trp λmax in aqueous buffer of 355 nm. The “toxicity for erythrocytes (hemolysis)” value with Human erythrocytes is on record as “not toxic”. For the same compound, in the data set with Mouse erythrocytes, the “toxicity for erythrocytes (hemolysis)” value is “not toxic”. Also, the “toxicity for primary epithelial cells” value in data set [1] is recorded as “not toxic”. Moreover, the “toxicity for primary epithelial cells” value in data set [2] is “not toxic”. In the data set with A549 cells, the “toxicity for A549 cells” value is on record as “not toxic”. Moreover, in data set [3] (24 h, RP-HPLC, UV 220 nm), the “degradation of the peptide” value was “totally degraded”. In data set [3] (after 30 min, RP-HPLC C18, UV 220 nm, intact peak area vs sum of all peptide areas, n = 3 independent experiments), the “degradation of the peptide” value was found to be 40%. Also, the “percentage of dead cells versus t0 peptide” value with mouse bone marrow cells (peptide (300 µM) pre-incubated with serum 15 min (t15), flow cytometry) was “no significant differences”. Moreover, in the data set on mouse bone marrow cells (peptide pre-incubated with serum 30 min (t30)), the “percentage of dead cells versus t0 peptide” value is listed as “started to decrease”. In the data set with mouse bone marrow cells (peptide pre-incubated with serum 24 h (t24)), the “induction of cell death” value is on record as “almost completely abolished”.
